# In patent US20240246946A1, “MODULATORS OF TREX1” (Constellation Pharmaceuticals, Inc., priority 2021, published 2024):
# Molecular target: T1, human TREX2 (residues M44-A279) (Homo sapiens, UniProt Q9BQ50)
# T1 construct: human TREX2 (residues M44-A279, expressed in E. coli); made in house; host or cells: E. coli
# T1 sequence (Q9BQ50 44-279 isoform Q9BQ50-1): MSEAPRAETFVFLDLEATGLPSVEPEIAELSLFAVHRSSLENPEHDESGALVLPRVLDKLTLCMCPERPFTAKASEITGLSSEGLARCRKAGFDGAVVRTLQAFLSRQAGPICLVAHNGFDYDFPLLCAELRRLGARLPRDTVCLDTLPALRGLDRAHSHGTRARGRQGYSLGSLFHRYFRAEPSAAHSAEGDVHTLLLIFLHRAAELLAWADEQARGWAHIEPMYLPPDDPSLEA
# Assay: hTREX2 Biochemical Assay (fluorescence, dsDNA substrate degradation)
# Conditions: biochemical selectivity for hTREX1 vs hTREX2
# How it was run: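 N-His-Tev E. coli enzyme (50 pM) pre-incubated with compound 4 h at 25 °C, then 60 nM TEX615/quencher dsDNA added; 18 h at 25 °C, pH 7.4 Tris buffer with 5 mM MgCl2, 1.0% DMSO. EDTA-quenched; fluorescence 570 ex/615 em from liberated fluorophore, 10-point dose-response.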
row,SMILES,hTREX1 vs hTREX2 selectivity
1,"CC(c1nc(C(=O)Nc2cnoc2)c(O)c(=O)n1C)C(c1cnn(C)c1)c1ccccc1C#N (single isomer, unassigned) [Example 2 D1E1]",C (C = >50 fold selective for hTREX1)
2,"CC(c1nc(C(=O)Nc2cnoc2)c(O)c(=O)n1C)C(c1ccccc1C#N)c1cn(C)nc1C#N (single isomer, unassigned) [Example 10 D1E1]",C (C = >50 fold selective for hTREX1)
3,"CCn1cc(C(c2ccccc2C#N)C(C)c2nc(C(=O)Nc3cnoc3)c(O)c(=O)n2C)cn1 (single isomer, unassigned) [Example 13 D1E1]",C (C = >50 fold selective for hTREX1)
4,"CC(c1nc(C(=O)Nc2cnoc2)c(O)c(=O)n1C)C(c1cnn(C)c1)c1cc(F)ccc1C#N (single isomer, unassigned) [Example 14 D1E2]",C (C = >50 fold selective for hTREX1)
5,"CCn1cc(C(c2ccc(F)cc2C#N)C(C)c2nc(C(=O)Nc3cnoc3)c(O)c(=O)n2C)cn1 (single isomer, unassigned) [Example 16 D1E1]",C (C = >50 fold selective for hTREX1)
6,"CC(c1nc(C(=O)Nc2cnoc2)c(O)c(=O)n1C)C(c1cnn(CC2CC2)c1)c1ccccc1C#N (single isomer, unassigned) [Example 23 D1E2]",C (C = >50 fold selective for hTREX1)
7,"Cc1cncc(C(c2ccccc2C#N)C(C)c2nc(C(=O)Nc3cnoc3)c(O)c(=O)n2C)n1 (single isomer, unassigned) [Example 53 D1E2]",C (C = >50 fold selective for hTREX1)
8,"Cc1nn(C)cc1C(c1cc(F)ccc1C#N)C(C)c1nc(C(=O)Nc2cnoc2)c(O)c(=O)n1C (single isomer, unassigned) [Example 57 D1E2]",C (C = >50 fold selective for hTREX1)
9,"CC(c1nc(C(=O)Nc2cnoc2)c(O)c(=O)n1C)C(c1cnn(C)c1)c1ccccc1Cl (single isomer, unassigned) [Example 77 D1E1]",C (C = >50 fold selective for hTREX1)
10,"Cc1ncc(C(c2ccccc2C#N)C(C)c2nc(C(=O)Nc3cnoc3)c(O)c(=O)n2C)nc1C (single isomer, unassigned) [Example 81 D1E2]",C (C = >50 fold selective for hTREX1)
11,"CC(c1nc(C(=O)Nc2cnoc2)c(O)c(=O)n1C)C(c1ccccc1C#N)c1cn(C)nc1F (single isomer, unassigned) [Example 91 D1E1]",B (B = 25 to 50-fold selective for hTREX1)
12,"CC(c1nc(C(=O)Nc2cnoc2)c(O)c(=O)n1C)C(c1cnn(C(C)C)c1)c1ccccc1C#N (single isomer, unassigned) [Example 105 D1E2]",B (B = 25 to 50-fold selective for hTREX1)
13,"Cc1cc(C(c2cc(F)ccc2C#N)C(C)c2nc(C(=O)Nc3cnoc3)c(O)c(=O)n2C)n(C)n1 (single isomer, unassigned) [Example 111 D1E2]",B (B = 25 to 50-fold selective for hTREX1)
14,"Cc1cnc(C(c2cc(F)ccc2C#N)C(C)c2nc(C(=O)Nc3cnoc3)c(O)c(=O)n2C)cn1 (single isomer, unassigned) [Example 115 D1E2]",B (B = 25 to 50-fold selective for hTREX1)
15,"Cc1nc(C)c(C(c2ccccc2C#N)C(C)c2nc(C(=O)Nc3cnoc3)c(O)c(=O)n2C)nc1C (single isomer, unassigned) [Example 122 D1E1]",C (C = >50 fold selective for hTREX1)
16,"Cc1ncc(C(c2cc(F)ccc2C#N)C(C)c2nc(C(=O)Nc3cnoc3)c(O)c(=O)n2C)nc1C (single isomer, unassigned) [Example 124 D1E2]",B (B = 25 to 50-fold selective for hTREX1)
17,"Cc1ncc(C(c2ccccc2Cl)C(C)c2nc(C(=O)Nc3cnoc3)c(O)c(=O)n2C)nc1C (single isomer, unassigned) [Example 125 D1E2]",B (B = 25 to 50-fold selective for hTREX1)
18,"CCn1c(C(C)C(c2cnn(C)c2)c2ccccc2C#N)nc(C(=O)Nc2cnoc2)c(O)c1=O (single isomer, unassigned) [Example 149 D1E2]",C (C = >50 fold selective for hTREX1)
19,C[C@H](c1nc(C(=O)Nc2cnoc2)c(O)c(=O)n1C)[C@@H](c1cc(F)ccc1C#N)c1cn(C)nc1C#N [Example 59 D1E2],C (C = >50 fold selective for hTREX1)
